Columns and labels:
[1] = design: method as in PMID 22864948; conditions: cited from earlier work
[2] = design: method as in PMID 25377157; conditions: patients with solid tumors with normal renal function; cited from earlier work
[3] = Population pharmacokinetic analysis (NONMEM), first final model; format: in vivo, patients
Excerpt: (§1) A population PK data set was constructed from 581 patients with advanced hematologic and solid tumors who participated in 14 phase 1 and phase 2 studies of panobinostat (Table 1). Studies A2101 and A2102 used IV panobinostat, whereas all other studies examined oral formulations of panobinostat. The CSF was used in two of the oral panobinostat studies, B2101and B2102, whereas the remaining studies used the FMI formulation. The two phase 1 dose-escalation studies of IV panobinostat used doses of 1.2 to 20 mg/m^2 daily administered under various intermittent regimens. In three phase 1 dose-escalation studies, patients received oral panobinostat at doses ranging from 10 to 80 mg/day (administered weekly on days 1, 3, and 5; or every other week; or on days 1 and 4 every week). In five phase 2 studies, patients with cutaneous T cell lymphoma, chronic myeloid leukemia, and multiple myeloma received 20 mg panobinostat orally per day on days 1, 3, and 5 weekly. In three clinical pharmacology studies, patients received oral panobinostat at 20 mg under various regimens for study-specific purposes: in cycle 1 followed by 20 mg per day (days 1, 3, and 5 weekly) or 45 mg (days 1 and 4 weekly) in subsequent cycles. In a phase 2 study of Hodgkin lymphoma, patients received 40 mg panobinostat on days 1, 3, and 5 weekly.
(§2) PK sampling generally occurred from predose through 48 h after each oral dose or predose through 24 h after each IV dose. Panobinostat was precipitated from plasma samples, evaporated to dryness, reconstituted with 10 % aqueous acetonitrile (containing 0.2 % formic acid), and analyzed by liquid chromatography–tandem mass spectrometry assay. The assay was linear from 0.5 to 500 ng/mL [15], and the bias and coefficient of variation (CV) values of the quality-control sample results ranged from −0.7 to 0.7 % and 2.3 to 11.6 %, respectively. The lower limit of quantification of panobinostat was 0.5 ng/mL for all studies except B2201 and B2203, for which it was 0.1 ng/mL. Values below the lower limit of quantification (6 % of the total) were excluded.
The data sets for modeling were prepared using SAS version 9.2. The time of panobinostat dosing or collection of blood was computed based on the date and time when available. When the date or time was unknown, collection times were estimated based on time of examinations or schedule in the protocol. Demographic information, including age, body weight, height, sex, and race, was collected at screening and used in the analysis. […] BSA (m^2) was computed via the Gehan–George formula as 234.94×Weight^0.515×Height^0.422/10000 where weight is in kilograms and height is in centimeters. […] was computed via the Cockroft–Gault formula as 140−Age×Weight×0.85forfemales/72×Creatinine/88.4 where creatinine was in micromoles per liter.
The model was developed based on the methods described by Wahlby and colleagues. Scatterplots used to visualize the plasma concentration vs. time profile were generated using R version 2.8.1 and SAS version 9.2. PK model building was conducted using the first-order conditional estimation method with INTERACTION (FOCEI) option, using the default three significant digits for convergence, within the software program nonlinear mixed-effect modeling (NONMEM) extended version VI and version VII. Random interindividual variability parameters were estimated using exponential parameterization. The exponential error models ensured that parameter estimates were within reasonable physiological bounds; negative values were not possible. Model selection criteria were based on both objective function values (OFVs), as generated by NONMEM, and graphic diagnostic plots. For each model analyzed, NONMEM calculated the minimum value of the OFV—a statistic that, up to an additive constant, is minus twice the log likelihood of the data. […]

[4] = design: method as in PMID 25939707; conditions: cited from earlier work
[5] = tested on: CYP3A4; design: method as in PMID 21706316; conditions: coadministered CYP3A4 inhibitor; cited from earlier work
[6] = design: method as in ref 22 (a number printed in a supplementary file, which may have a reference list of its own: not looked up in the article's list); conditions: second final model; allometric exponent of weight on V2, assumed, no bootstrap; cited from earlier work
[7] = tested on: plasma protein; conditions: independent of the drug concentration in plasma; no reference given; cited from earlier work
[8] = design: method as in ref 17 = [17]; 17. Woo MM, Culver K, Li W, Liu A, Scott J, Parker K, Jalaluddin M, Laird G, Cooper MR, Schran HF (2008) Panobinostat (LBH589) pharmacokinetics (PK): implications for clinical safety and efficacy. Ann; conditions: oral, 60 mg; cited from earlier work
[9] = design: method as in PMID 16899611; conditions: IV, highest dose administered 14 mg/m^2; refractory hematologic tumors; cited from earlier work
[10] = Population pharmacokinetic analysis (NONMEM), second final model; format: in vivo, patients
Excerpt: as §1, §2
The model was developed based on the methods described by Wahlby and colleagues. Scatterplots used to visualize the plasma concentration vs. time profile were generated using R version 2.8.1 and SAS version 9.2. PK model building was conducted using the first-order conditional estimation method with INTERACTION (FOCEI) option, using the default three significant digits for convergence, within the software program nonlinear mixed-effect modeling (NONMEM) extended version VI and version VII. Random interindividual variability parameters were estimated using exponential parameterization. The exponential error models ensured that parameter estimates were within reasonable physiological bounds; negative values were not possible. Model selection criteria were based on both objective function values (OFVs), as generated by NONMEM, and graphic diagnostic plots. For each model analyzed, NONMEM calculated the minimum value of the OFV—a statistic that, up to an additive constant, is minus twice the log likelihood of the data. When two models are nested and the additional parameters of the larger model are not needed, the difference in their minimum OFV is asymptotically χ^2 distributed, with the number of degrees of freedom equal to the number of parameters not common to the two models. The likelihood ratio test compared the two models on the basis of the difference in their OFV values.
PK data from both the IV and oral routes were fitted simultaneously in order to allow for estimation of the oral bioavailability. Several models were explored, including two-compartment and three-compartment models with first-order elimination. […]

dose proportionality of PK ([3]; dose range of 10 to 80 mg across the 14 studies, CL and V2 related to dose): dose proportional
K23 ([3]; first final model): 1.810 h⁻¹
K24 ([3]; first final model): 1.424 h⁻¹
K32 ([3]; first final model): 0.507 h⁻¹
K42 ([3]; first final model): 0.040 h⁻¹
interindividual (inter-patient) variability in clearance ([3]; first final model): 74%
OM.CLV2 (Omega 2,1) ([3]; first final model, covariance CL-V2): 0.178
V2.BSA ([3]; first final model, exponent of (BSA/1.9) on V2): 1.359
V2.AGE ([3]; first final model, exponent of (age/61) on V2): 0.396
OM.V2 (Omega 2,2) ([3]; first final model, interindividual variance of V2): 0.334
V2.ASIAN ([3]; first final model, multiplicative factor on V2, Asian vs Caucasian): 1.373
V2.BLACK ([3]; first final model, multiplicative factor on V2, black vs Caucasian): 1.241
V2.OTHER ([3]; first final model, multiplicative factor on V2, other race vs Caucasian): 1.127
F1 (bioavailability) ([3]; first final model, oral, fraction): 0.214
CL (clearance) ([3]; first final model, patient with BSA 1.9 m^2): 33.085 L/h
V2 (volume of the central compartment) ([3]; first final model, reference BSA 1.9 m^2, age 61, Caucasian): 24.838 L
clearance ([3]; human, plasma, other: IV and oral routes fitted simultaneously, first final model, patient with BSA 1.9 m^2, read-out: CL (clearance) (converted)): 552 mL/min
half-life ([3]; human, plasma, other: IV and oral routes fitted simultaneously, calculated based on the final parameter estimates, read-out: terminal half-life (converted)): ~37 h
bioavailability ([3]; human, plasma, first final model, oral, read-out: absolute bioavailability): 21.4%
OM.CLV2 (Omega 2,1) ([10]; covariance CL-V2): 0.151
OM.Q3V3 (Omega 4,3) ([10]; covariance Q3-V3): 0.505
OM.Q4V4 (Omega 6,5) ([10]; covariance Q4-V4): 0.556
Q3.AGE ([10]; exponent of (age/61) on Q3): 0.410
Q4.AGE ([10]; exponent of (age/61) on Q4): 0.212
V2.AGE ([10]; exponent of (age/61) on V2): -0.005
V3.AGE ([10]; exponent of (age/61) on V3): 0.713
V4.AGE ([10]; exponent of (age/61) on V4): 0.530
bioavailability ([10]; human, plasma, oral, fraction, read-out: F1 (bioavailability)): 19.4%
clearance ([10]; human, plasma, other: intravenous and oral, fitted simultaneously, reference weight 70 kg, age 61, Caucasian): 481 mL/min
OM.Q3 (Omega 3,3) ([10]; interindividual variance of Q3): 0.666
OM.Q4 (Omega 5,5) ([10]; interindividual variance of Q4): 0.497
OM.V2 (Omega 2,2) ([10]; interindividual variance of V2): 1.668
OM.V3 (Omega 4,4) ([10]; interindividual variance of V3): 0.441
OM.V4 (Omega 6,6) ([10]; interindividual variance of V4): 0.700
V2.ASIAN ([10]; multiplicative factor on V2, Asian vs Caucasian): 2.060
V2.BLACK ([10]; multiplicative factor on V2, black vs Caucasian): 1.817
V2.OTHER ([10]; multiplicative factor on V2, other race vs Caucasian): 0.835
V3 (peripheral volume) ([10]; reference weight 70 kg, age 61): 71.874 L
V4 (peripheral volume) ([10]; reference weight 70 kg, age 61): 803.193 L
V2 ([10]; reference weight 70 kg, age 61, Caucasian): 30.862 L
SMILES: Cc1[nH]c2ccccc2c1CCNCc1ccc(/C=C/C(=O)NO)cc1 [panobinostat]
number of circulating metabolites [1]: approximately 40
fraction excreted unchanged in the urine [2]: < 2.5%
panobinostat exposure with liver impairment [4]: significant increases
panobinostat exposure with ketoconazole [5]: significant increases
V2.WT [6]: 1.000
plasma protein binding [7]: 90%
mean Cmax [8]: 71 ng/mL
maximum concentration (Cmax, mean ± SD) [9]: 565.6 ± 450.9 ng/mL

Source: PMC4430599, “Population pharmacokinetics of intravenous and oral panobinostat in patients with hematologic and solid tumors” (European Journal of Clinical Pharmacology, 2015)
